# Test results taken from patent EP4763845A1, “CYANO AROMATIC RING DERIVATIVE AND PHARMACEUTICAL USE THEREOF” (Haisco Pharmaceutical Group Co., Ltd., priority 2023, dated 2025).
# Where two headings read alike, the source gives them in different places.
# Tests used:
# Format in all cases: cell-based
# [1] = target: T1, hERG potassium channel (Homo sapiens, UniProt Q12809); assay: hERG potassium ion channel test (manual patch-clamp, CHO cells)
# T1 construct: expressed in transfected cells; host or cells: CHO cells stably expressing hERG
# T1 sequence (Q12809 whole entry): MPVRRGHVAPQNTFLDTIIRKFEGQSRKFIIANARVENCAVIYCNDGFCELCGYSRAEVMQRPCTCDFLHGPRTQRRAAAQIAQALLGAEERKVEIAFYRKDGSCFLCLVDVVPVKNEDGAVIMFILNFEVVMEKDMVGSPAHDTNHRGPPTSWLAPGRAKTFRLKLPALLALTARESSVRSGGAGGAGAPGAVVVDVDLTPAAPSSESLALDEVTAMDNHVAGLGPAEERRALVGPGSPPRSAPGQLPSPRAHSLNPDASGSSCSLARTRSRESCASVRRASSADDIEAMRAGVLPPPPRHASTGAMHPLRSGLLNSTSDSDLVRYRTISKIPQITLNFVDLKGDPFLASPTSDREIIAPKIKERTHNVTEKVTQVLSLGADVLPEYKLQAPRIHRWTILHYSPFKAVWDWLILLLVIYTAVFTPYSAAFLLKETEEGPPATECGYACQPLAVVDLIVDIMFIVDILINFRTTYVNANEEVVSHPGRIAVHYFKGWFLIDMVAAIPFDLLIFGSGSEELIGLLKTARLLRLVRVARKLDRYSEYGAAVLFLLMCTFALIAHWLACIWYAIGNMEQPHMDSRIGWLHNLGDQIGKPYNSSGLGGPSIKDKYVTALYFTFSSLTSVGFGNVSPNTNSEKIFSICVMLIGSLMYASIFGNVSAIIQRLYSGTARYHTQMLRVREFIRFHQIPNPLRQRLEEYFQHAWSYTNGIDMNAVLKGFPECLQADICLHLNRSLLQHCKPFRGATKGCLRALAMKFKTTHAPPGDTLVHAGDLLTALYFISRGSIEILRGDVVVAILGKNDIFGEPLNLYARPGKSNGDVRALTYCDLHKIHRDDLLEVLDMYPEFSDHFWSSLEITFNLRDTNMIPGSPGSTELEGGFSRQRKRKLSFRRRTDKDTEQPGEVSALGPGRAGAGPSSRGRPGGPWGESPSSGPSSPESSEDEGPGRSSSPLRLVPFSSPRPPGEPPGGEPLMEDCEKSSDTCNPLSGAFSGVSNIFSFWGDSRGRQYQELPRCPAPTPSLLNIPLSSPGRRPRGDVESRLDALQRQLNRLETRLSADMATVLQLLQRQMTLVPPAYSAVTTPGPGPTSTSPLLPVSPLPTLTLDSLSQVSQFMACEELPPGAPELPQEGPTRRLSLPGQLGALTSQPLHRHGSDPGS
# Excerpt: Experimental platform: Electrophysiological manual patch-clamp system
# Cell line: Chinese hamster ovary (CHO) cell lines stably expressing hERG potassium ion channel
# Experimental method: In Chinese Hamster Ovary (CHO) cells stably expressing hERG potassium channel, whole cell patch-clamp technique was used to record hERG potassium channel current at room temperature. The glass microelectrode was made of a glass electrode blank (BF150-86-10, Sutter) by a puller. The tip resistance after filling the liquid in the electrode was about 2-5 MΩ. The glass microelectrode can be connected to the patch-clamp amplifier by inserting the glass microelectrode into an amplifier probe. The clamping voltage and data recording were controlled and recorded by the pClamp 10 software through a computer. The sampling frequency was 10 kHz, and the filtering frequency was 2 kHz. After the whole cell records were obtained, the cells were clamped at -80 mV, and the step voltage that induced the hERG potassium current (I hERG) was depolarised from -80 mV to +20 mV for 2 s, then repolarised to -50 mV, and returned to -80 mV after 1 s. This voltage stimulation was given every 10 s, and the administration process was started after the hERG potassium current was confirmed to be stable (at least 1 minute). The compound was administered for at least 1 minute at each test concentration, and at least 2 cells (n ≥ 2) were tested at each concentration.
# Data processing: Data analysis processing was carried out by using pClamp 10, GraphPad Prism 5 and Excel software.
# Compound IC50 was calculated using GraphPad Prism 5 software by fitting according to the following equation: Y = Bottom + (Top−Bottom)/(1+10^(∧)((LogIC50−X)*HillSlope)) [formula] where X represents the Log value of the tested concentration of the test sample, Y represents the inhibition percentage at the corresponding concentration, and Bottom and Top represent the minimum and maximum inhibition percentage, respectively.
# [2] = target: T2, AR protein (Homo sapiens, UniProt P10275); assay: Detection of AR degradation in VCaP cells (automated western blot); settings: for DC50: degradation of AR protein in VCaP cells, 24 hours incubation, read-out: DC50
# T2 construct: VCap is a human prostate cancer cell line purchased from ATCC; host or cells: VCaP human prostate cancer cells
# T2 sequence (P10275 1-920): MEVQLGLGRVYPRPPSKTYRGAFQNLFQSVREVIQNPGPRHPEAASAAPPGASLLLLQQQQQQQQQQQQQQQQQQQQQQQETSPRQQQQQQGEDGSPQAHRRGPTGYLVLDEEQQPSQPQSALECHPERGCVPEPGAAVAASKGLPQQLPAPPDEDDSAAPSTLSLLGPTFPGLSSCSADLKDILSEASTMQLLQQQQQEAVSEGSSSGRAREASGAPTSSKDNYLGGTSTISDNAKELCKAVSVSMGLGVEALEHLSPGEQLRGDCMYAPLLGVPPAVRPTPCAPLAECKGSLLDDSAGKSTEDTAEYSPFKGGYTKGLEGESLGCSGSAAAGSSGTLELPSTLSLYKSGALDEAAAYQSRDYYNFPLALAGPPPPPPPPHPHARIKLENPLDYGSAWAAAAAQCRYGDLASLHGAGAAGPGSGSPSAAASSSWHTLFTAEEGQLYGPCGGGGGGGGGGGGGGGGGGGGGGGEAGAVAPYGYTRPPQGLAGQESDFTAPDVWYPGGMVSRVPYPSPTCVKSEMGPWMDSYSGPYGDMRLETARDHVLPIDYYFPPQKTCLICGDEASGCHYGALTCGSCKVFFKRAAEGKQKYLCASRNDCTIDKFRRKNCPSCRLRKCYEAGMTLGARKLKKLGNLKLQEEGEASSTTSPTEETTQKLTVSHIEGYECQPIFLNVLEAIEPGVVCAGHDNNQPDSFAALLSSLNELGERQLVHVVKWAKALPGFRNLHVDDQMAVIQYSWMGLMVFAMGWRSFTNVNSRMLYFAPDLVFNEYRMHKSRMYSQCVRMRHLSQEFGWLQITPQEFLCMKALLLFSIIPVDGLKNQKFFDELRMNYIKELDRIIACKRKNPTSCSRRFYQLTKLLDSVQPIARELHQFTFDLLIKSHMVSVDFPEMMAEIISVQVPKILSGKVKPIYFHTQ
# Protocol: VCap is a human prostate cancer cell line purchased from ATCC and cultured under the following conditions: DMEM + 10% FBS + 1% penicillin-streptomycin solution. The cells were cultured in a 37°C, 5% CO2 incubator. The cells were seeded in a 6-well plate, with 5 × 10^5 cells/well. After seeding, compounds at various concentrations were added, and the plate was incubated for 24 hours in the 37°C, 5% CO2 incubator. Following incubation, the cells were harvested and RIPA lysis buffer (beyotime, Cat. P0013B) was added. The cells were lysed on ice for 15 minutes and centrifuged at 12,000 rpm at 4°C for 10 minutes. The supernatant protein samples were collected and the protein was quantified using the BCA kit (Beyotime, Cat. P0009). Then the protein was diluted to 0.25 mg/mL. The expressions of AR (CST, Cat.5153S) and the internal reference β-actin (CST, Cat. 3700S) were detected using a fully automated western blot quantitative analyser (Proteinsimple). Using the "Compass for SW" software, the relative peak area of AR was calculated when the internal reference area was 10,000. The proportion of AR relative to the solvent control group at various drug concentrations was calculated according to Equation (1), where ARtreat represents the relative peak area of the compound-treated group, and ARsolvent represents the relative peak area of the solvent control group. The processed data obtained from Equation (1) were analysed using GraphPad Prism 8.3.0 software, and the DC50 value was calculated using a four-parameter nonlinear regression model. The degradation rate at a specified concentration was determined as 100-AR%. AR% = ARtreat/ ARsolvent × 100% [formula]
# [3] = tested on: VCaP cells; assay: VCaP cell proliferation inhibition experiment (CellTiter-Glo); settings: Homo sapiens, 168 h
# Protocol: After centrifugation and resuspension, viable cell counting was performed using a Vi-Cell XR cell counter. […] Then, 180 µl of the cell suspension was added per well to a 96-well cell culture plate at a cell density of 7,500 cells/well. At the time of seeding, T0 wells were also prepared. The following day, R1881 at a final concentration of 0.1 nM and compounds at various concentrations were added. The plate was placed back into the incubator and cultured for an additional 7 days. At the time of compound addition, the T0 plate was measured using the CellTiter-Glo (CTG) kit (Promega, Cat. No. G7572) and recorded as RLU0. Following incubation, 75 µl of pre-thawed and room temperature-equilibrated CellTiter-Glo solution was added to each well. […] The results were processed according to Equation (2). […] Growth% = (RLUcompound−RLU0)/(RLUcontrol−RLU0) × 100% [formula]
# [4] = chinese hamster, inhibitory activity against hERG potassium channel current, CHO cells, whole cell patch-clamp, read-out: IC50
Compound,DC50 [2],GI50 [3],other results
COc1cc(O[C@H]2C(C)(C)[C@H](NC(=O)c3ccc(N4CCC(CN5CCN6c7cc(F)c(C8CCC(=O)NC8=O)cc7CC[C@H]6C5)CC4)cc3)C2(C)C)ccc1C#N (stereo partly drawn) [Trifluoroacetate of compound 1],< 100 nM,,"IC50 ([1]; chinese hamster, cho cells): > 40 µM"
[2H]C([2H])([2H])Oc1cc(O[C@H]2C(C)(C)[C@H](NC(=O)c3ccc(N4CCC(CN5CCN6c7cc(F)c(C8CCC(=O)NC8=O)cc7CC[C@H]6C5)CC4)nn3)C2(C)C)ccc1C#N (stereo partly drawn) [Compound 86],,< 300 nM,
CC1(C)[C@H](NC(=O)c2ccc(N3CCC4(CC3)CC(CN3CCN5c6cc(F)c(C7CCC(=O)NC7=O)cc6CC[C@H]5C3)C4)cc2)C(C)(C)[C@H]1Oc1ccc(C#N)c2ncccc12 (stereo partly drawn) [Compound 73],< 100 nM,,"IC50 [1, 4]: > 40 µM"
[2H]C([2H])([2H])Oc1cc(O[C@H]2C(C)(C)[C@H](NC(=O)c3ccc(N4CCC5(CC4)CC(N4CCN6c7cc(F)c(N8CCC(=O)NC8=O)cc7CC[C@@H]6C4)C5)cc3)C2(C)C)ccc1C#N [Compound 94],,< 300 nM,
[2H]C([2H])([2H])Oc1cc(O[C@H]2C(C)(C)[C@H](NC(=O)c3ccc(N4CCC(CN5CCN6c7cc(F)c(C(=O)N[C@H]8CCC(=O)NC8=O)cc7CC[C@@H]6C5)CC4)nn3)C2(C)C)ccc1C#N [Compound 87],,< 500 nM,
CC1(C)[C@H](NC(=O)c2ccc(N3CCC(CN4CCN5c6cc(F)c(C(=O)N[C@H]7CCC(=O)NC7=O)cc6CC[C@@H]5C4)CC3)cc2)C(C)(C)[C@H]1Oc1ccc(C#N)c2ncccc12 [Compound 34],< 100 nM,,"IC50 [1, 4]: > 40 µM"
[2H]C([2H])([2H])Oc1cc(O[C@H]2C(C)(C)[C@H](NC(=O)c3ccc(N4CCC(CN5CCN6c7cc(F)c(C(=O)N[C@H]8CCC(=O)NC8=O)cc7CC[C@@H]6C5)CC4)cc3)C2(C)C)ccc1C#N [Compound 40],< 100 nM,< 300 nM,
COc1cc(O[C@H]2C(C)(C)[C@H](NC(=O)c3ccc(N4CCC(CN5CCN6c7cc(F)c(C(=O)NC8CCC(=O)NC8=O)cc7CC[C@H]6C5)CC4)cc3)C2(C)C)ccc1C#N (stereo partly drawn) [Trifluoroacetate of compound 3],< 100 nM,,"IC50 [1, 4]: > 40 µM"
CC1(C)[C@H](NC(=O)c2ccc(N3CCC(CN4CCN5c6cc(F)c(C7CCC(=O)NC7=O)cc6CC[C@H]5C4)CC3)cc2)C(C)(C)[C@H]1Oc1ccc(C#N)c(C2CC2)c1 (stereo partly drawn) [Compound 118],,,"IC50 ([1]; inhibitory activity against hERG potassium channel current, CHO cells, whole cell patch-clamp, read-out: IC50): > 40 µM; Degradation rate % ([2]; AR protein in VCaP cells, concentration of 30 nM, 24 hours): >70%"
CC1(C)[C@H](NC(=O)c2ccc(N3CCC(CN4CCN5c6cc(F)c(C(=O)N[C@H]7CCC(=O)NC7=O)cc6CC[C@H]5C4)CC3)cc2)C(C)(C)[C@H]1Oc1ccc(C#N)c2ncccc12 [Compound 35],< 100 nM,,"IC50 [1, 4]: > 40 µM"
CC1(C)[C@H](NC(=O)c2ccc(N3CCC(CN4CCN5c6cc(F)c(C(=O)N[C@H]7CCC(=O)NC7=O)cc6CC[C@@H]5C4)CC3)cc2)C(C)(C)[C@H]1Oc1ccc(C#N)c(Cl)c1 [Compound 52],,< 300 nM,
[2H]C([2H])([2H])Oc1cc(O[C@H]2C(C)(C)[C@H](NC(=O)c3ccc(N4CCC(CN5CCN6c7cc(F)c(C8CCC(=O)NC8=O)cc7CC[C@H]6C5)CC4)cc3)C2(C)C)ccc1C#N (stereo partly drawn) [Compound 37],< 100 nM,< 300 nM,
COc1cc(O[C@H]2C(C)(C)[C@H](NC(=O)c3ccc(N4CCC(CN5CCN6c7cc(F)c(C(=O)NC8CCC(=O)NC8=O)cc7CC[C@@H]6C5)CC4)cc3)C2(C)C)ccc1C#N (stereo partly drawn) [Trifluoroacetate of compound 4],< 100 nM,,"IC50 [1, 4]: > 40 µM"
COc1cc(O[C@H]2C(C)(C)[C@H](NC(=O)c3ccc(N4CCC(CN5CCN6c7cc(F)c(N8CCC(=O)NC8=O)cc7CC[C@@H]6C5)CC4)cc3)C2(C)C)ccc1C#N [Compound 28],,,IC50 [1]: > 40 µM
COc1cc(O[C@H]2C(C)(C)[C@H](NC(=O)c3ccc(N4CCC5(CC4)CC(N4CCN6c7cc(F)c(N8CCC(=O)NC8=O)cc7CC[C@H]6C4)C5)cc3)C2(C)C)ccc1C#N [Trifluoroacetate of compound 84],< 100 nM,,
COc1cc(O[C@H]2C(C)(C)[C@H](NC(=O)c3ccc(N4CCC(CN5CCN6c7cc(F)c(C8CCC(=O)NC8=O)cc7CC[C@@H]6C5)CC4)cc3)C2(C)C)ccc1C#N (stereo partly drawn) [Trifluoroacetate of compound 2],< 100 nM,,IC50 [1]: > 40 µM
CC1(C)[C@H](NC(=O)c2ccc(N3CCC(CN4CCN5c6cc(F)c(C7CCC(=O)NC7=O)cc6CC[C@H]5C4)CC3)cc2)C(C)(C)[C@H]1Oc1ccc(C#N)c(Cl)c1 (stereo partly drawn) [Compound 49],< 100 nM,,
COc1cc(O[C@H]2C(C)(C)[C@H](NC(=O)c3ccc(N4CCC(N5CCN6c7cc(F)c(C(=O)N[C@H]8CCC(=O)NC8=O)cc7CC[C@@H]6C5)CC4)cc3)C2(C)C)ccc1C#N [Trifluoroacetate of compound 22],< 100 nM,,
CC1(C)[C@H](NC(=O)c2ccc(N3CCC(CN4CCN5c6cc(F)c(N7CCC(=O)NC7=O)cc6CC[C@H]5C4)CC3)cc2)C(C)(C)[C@H]1Oc1ccc(C#N)c2ncccc12 [Trifluoroacetate of compound 33],< 100 nM,< 500 nM,
